Source: ChEMBL document CHEMBL1201862, “PubChem BioAssay data set” (2004)
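Tested at 5 concentrations; 48 h exposure; 96-well plates; endpoints linearly interpolated, else capped at highest concentration. GI50 marks 50% less growth.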 The source made the active and inactive calls. No stated cut-off is given here; in the data, active = GI50 up to about 1.1 µM and inactive = higher.

Experiments:
Experiment in all cases: DTP human tumour cell line panel, 48 h
Hs-578T = test system: Hs-578T
MOLT-4 = test system: MOLT-4
SF-295 = test system: SF-295
PC-3 = test system: PC-3
SNB-75 = test system: SNB-75
HOP-62 = test system: HOP-62
SK-OV-3 = test system: SK-OV-3
Malme-3M = test system: Malme-3M
OVCAR-3 = test system: OVCAR-3
IGROV-1 = test system: IGROV-1
SR = test system: SR
HCT-116 = test system: HCT-116
EKVX = test system: EKVX
KM12 = test system: KM12
LOX IMVI = test system: LOX IMVI
NCI-H522 = test system: NCI-H522
HCT-15 = test system: HCT-15
COLO 205 = test system: COLO 205
UACC-62 = test system: UACC-62
RXF 393 = test system: RXF 393
HT-29 = test system: HT-29
ACHN = test system: ACHN
K562 = test system: K562
MDA-MB-231 = test system: MDA-MB-231
HCC 2998 = test system: HCC 2998
NCI-H23 = test system: NCI-H23
NCI/ADR-RES = test system: NCI/ADR-RES
A549 = test system: A549
SF-539 = test system: SF-539
HL-60 = test system: HL-60
U-251 = test system: U-251
SK-MEL-5 = test system: SK-MEL-5
TK-10 = test system: TK-10
OVCAR-8 = test system: OVCAR-8
M14 = test system: M14
RPMI-8226 = test system: RPMI-8226
MCF7 = test system: MCF7
OVCAR-4 = test system: OVCAR-4
UO-31 = test system: UO-31
A498 = test system: A498
SK-MEL-2 = test system: SK-MEL-2
T47D = test system: T47D
MDA-MB-435 = test system: MDA-MB-435
MDA-N = test system: MDA-N
UACC-257 = test system: UACC-257
OVCAR-5 = test system: OVCAR-5
CCRF-CEM = test system: CCRF-CEM
786-0 = test system: 786-0
SN12C = test system: SN12C
HOP-92 = test system: HOP-92
DU-145 = test system: DU-145
SK-MEL-28 = test system: SK-MEL-28
SF-268 = test system: SF-268
SNB-19 = test system: SNB-19
NCI-H226 = test system: NCI-H226
NCI-H460 = test system: NCI-H460
CAKI-1 = test system: CAKI-1
SW-620 = test system: SW-620

Measured: GI50

COC(=O)c1c2c(cc3c1CC1(Cc4cc5c(cc4C1)CCCC5)C3)CCCC2
active: SNB-75 0.155 µM
inactive: Hs-578T > 100 µM | MOLT-4 > 100 µM | SF-295 > 100 µM | PC-3 > 100 µM | HOP-62 > 100 µM | SK-OV-3 > 100 µM | Malme-3M > 100 µM | OVCAR-3 > 100 µM | IGROV-1 > 100 µM | SR 27.5 µM | HCT-116 15.3 µM | EKVX > 100 µM | KM12 > 100 µM | LOX IMVI > 100 µM | NCI-H522 > 100 µM | COLO 205 > 100 µM | UACC-62 > 100 µM | RXF 393 25.8 µM | HT-29 > 100 µM | ACHN > 100 µM | K562 > 100 µM | MDA-MB-231 > 100 µM | HCC 2998 > 100 µM | NCI-H23 > 100 µM | NCI/ADR-RES > 100 µM | A549 46.3 µM | SF-539 > 100 µM | HL-60 80.4 µM | U-251 > 100 µM | SK-MEL-5 > 100 µM | TK-10 > 100 µM | OVCAR-8 > 100 µM | M14 > 100 µM | RPMI-8226 > 100 µM | MCF7 > 100 µM | OVCAR-4 > 100 µM | UO-31 > 100 µM | A498 > 100 µM | SK-MEL-2 > 100 µM | T47D > 100 µM | MDA-MB-435 > 100 µM | MDA-N > 100 µM | UACC-257 > 100 µM | OVCAR-5 > 100 µM | CCRF-CEM 12 µM | 786-0 > 100 µM | SN12C > 100 µM | HOP-92 > 100 µM
> 100 µM: HCT-15

Nc1ccccc1CC(O)C(=O)O (stereo unspecified)
inactive: Hs-578T > 100 µM | MOLT-4 > 100 µM | SF-295 > 100 µM | PC-3 > 100 µM | SNB-75 > 100 µM | HOP-62 > 100 µM | SK-OV-3 > 100 µM | Malme-3M > 100 µM | OVCAR-3 > 100 µM | DU-145 > 100 µM | SK-MEL-28 > 100 µM | SR > 100 µM | HCT-116 > 100 µM | EKVX > 100 µM | KM12 > 100 µM | LOX IMVI > 100 µM | COLO 205 > 100 µM | UACC-62 > 100 µM | SF-268 > 100 µM | RXF 393 > 100 µM | HT-29 > 100 µM | ACHN > 100 µM | SNB-19 > 100 µM | K562 > 100 µM | NCI-H226 > 100 µM | MDA-MB-231 > 100 µM | NCI-H460 > 100 µM | HCC 2998 > 100 µM | NCI-H23 > 100 µM | NCI/ADR-RES > 100 µM | A549 > 100 µM | CAKI-1 > 100 µM | SW-620 > 100 µM | SF-539 > 100 µM | HL-60 > 100 µM | U-251 > 100 µM | SK-MEL-5 > 100 µM | TK-10 > 100 µM | OVCAR-8 > 100 µM | M14 > 100 µM | RPMI-8226 > 100 µM | MCF7 > 100 µM | A498 > 100 µM | T47D > 100 µM | MDA-MB-435 > 100 µM | MDA-N > 100 µM | UACC-257 > 100 µM | OVCAR-5 > 100 µM | CCRF-CEM > 100 µM | 786-0 > 100 µM | SN12C > 100 µM | HOP-92 > 100 µM
> 100 µM: HCT-15

Cn1c(=O)c2nc(Nc3ccccc3)[nH]c2n(C)c1=O
inactive: MOLT-4 > 10 µM | SF-295 > 10 µM | PC-3 > 10 µM | SNB-75 > 10 µM | HOP-62 > 10 µM | SK-OV-3 > 10 µM | Malme-3M > 10 µM | DU-145 > 10 µM | SK-MEL-28 > 10 µM | IGROV-1 > 10 µM | SR > 10 µM | EKVX > 10 µM | KM12 > 10 µM | LOX IMVI > 10 µM | COLO 205 > 10 µM | UACC-62 > 10 µM | SF-268 > 10 µM | RXF 393 > 10 µM | HT-29 > 10 µM | K562 > 10 µM | MDA-MB-231 > 10 µM | HCC 2998 > 10 µM | NCI-H23 > 10 µM | A549 > 10 µM | CAKI-1 > 10 µM | SW-620 > 10 µM | HL-60 > 10 µM | SK-MEL-5 > 10 µM | TK-10 > 10 µM | OVCAR-8 > 10 µM | M14 > 10 µM | RPMI-8226 > 10 µM | MCF7 > 10 µM | OVCAR-4 > 10 µM | T47D > 10 µM | MDA-MB-435 > 10 µM | MDA-N > 10 µM | UACC-257 > 10 µM | CCRF-CEM > 10 µM | 786-0 > 10 µM | SN12C > 10 µM | HOP-92 > 10 µM
> 10 µM: HCT-15
